Measurements published in patent US3984432A, “Color photographic recording material” (priority 1973, dated 1976).

Tests used:
[1] = Solubility of coupling agents in tricresyl phosphate (oil) at 20° C (Table A); assay type: physicochemical
[2] = Absorption maximum after colour development in a photographic silver halide layer according to Use Example I; assay type: physicochemical
Procedure, shortened: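 Coupling agent dispersed in tricresyl phosphate with gelatine at pH 6.5, mixed with silver bromide emulsion and hardener, cast on glass plates and dried at 32° C. Strips exposed to 500 Lux/cm^2 under a step wedge for 2 seconds, then processed at 24° C; absorption maximum read after colour development.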

| SMILES | Solubility in g per g of tricresyl phosphate [1] | Abs.max. (single maximum) [2] |
| --- | --- | --- |
| CCCCOP(=O)(CC(=O)Nc1cccc(NC(=O)CC(=O)c2ccccc2)c1)OCCCC [(109)] | > 5 g per g of tricresyl phosphate | 442 nm |
| COc1ccc(C(=O)NCCCP(=O)(OC(C)C)OC(C)C)cc1NC(=O)CC(=O)c1ccccc1Cl [(128)] | > 5 g per g of tricresyl phosphate | 447 nm |
| CCCCC(CC)COP(=O)(CCCNC(=O)c1ccc(Cl)c(NC(=O)CC(=O)C(C)(C)C)c1)OCC(CC)CCCC (centres unmarked) [(135)] | > 5 g per g of tricresyl phosphate | 445 nm |

The next lines start with results.

| Solubility in g per g of tricresyl phosphate [1] | SMILES | Abs.max. (single maximum) [2] |
| --- | --- | --- |
| 1 g per g of tricresyl phosphate | CCCCCCCCCCOc1cccc(OCCC(=O)Nc2cccc(NC(=O)CC(=O)c3ccccc3C)c2)c1 [DT-OS 2,039,970] | – |
| 0.4 g per g of tricresyl phosphate | CCC(Oc1ccc(C(C)(C)CC)cc1C(C)(C)CC)C(=O)Nc1cc(Cl)c(C)c(Cl)c1O (centres unmarked) [US-PS 2,801,171 Coupling agent No. (4)] | – |
